Patent publication US20050187188A1, “Methods for the treatment of a traumatic central nervous system injury” (Emory University, priority 2000, published 2005)

How the values were obtained:
[1] = tested on: rats with medial frontal cortical contusions; experiment: Cerebral edema (brain tissue water content) after medial frontal cortex contusion, Example 1; type: in vivo, rat; settings: 4 mg/kg in cyclodextrin, i.p. 1 h and s.c. 6 h post-injury; 2, 24 and 72 hours; compared to vehicle
Experimental: Contusions to the medical frontal cortex (MFC) using a pneumatic impactor device were generated. Animals were anesthetized by injection of Nembutal (50 mg/kg, i.p) and placed in a stereotaxic apparatus, with body core temperature being maintained with a homeothermic heating blanket system. Using aseptic techniques, a midline incision was made in the scalp, and the fascia retracted to expose the cranium. A centered, bilateral craniotomy was made 3 mm anterior to bregma using a 6 mm diameter trephan. After the removal of the bone, the tip of the impactor was moved to AP:3.0; ML:0.0, checked for adequate clearance, retracted to its elevated position and lowered 3.5 mm DV, so it penetrated the cortex 2 mm. The contusion was made at a velocity of 2.25 m/s with a brain contact time of 0.5 seconds. Following this procedure, the wound cavity was thoroughly cleaned and all bleeding stopped before the fascia and scalp, were sutured closed. In all experiments, the rats' group identity was coded with regard to surgery and treatment to prevent experimenter bias during behavioral testing and later histological examination.
These experimental solutions were then diluted 1:1 with sterile water for a final concentration of HBC of 22.5%.
Sprague-Dawley male rats, approximately 90 days of age at the time of surgery, were used. Rats were housed in individual cages, with a 12:12 light:dark cycle. Food and water were provided ad libitum throughout the experiment. Control rats received sham surgeries and the rest received medial frontal cortical contusions as described in the general methods. The sham-operated controls were given vehicle (cyclodextrin). […] Treatment began one hour after the contusion was produced. […] Subsequently, a second subcutaneous injection 6 hours post-injury for absorption that is more gradual. […]
At 2, 24, and 72 hours the rats were anesthetized, decapitated, and their brains removed quickly from the cranial cavity. […] The brain was placed on a pre-weighed dish and the total weight of the sample was measured. […]

[2] = tested on: rats with bilateral contusions of the medial prefrontal cortex; experiment: Lesion size, ventricle and striatal area measurements after medial prefrontal cortex contusion, Example 6; type: in vivo, rat; settings: 4 mg/kg in peanut oil
Experimental: (§1) Male Sprague-Dawley rats (300 g) were housed individually in wire cages and kept on a reverse light-dark cycle (0800-2000 h). Animals were assigned to one of four groups: (1) lesion (n=7); (2) lesion +3 days progesterone (LP3; n=7); (3) lesion +5 days progesterone (LP5; n=7); and (4) Sham (n=8). All procedures involving animals conformed to guidelines set forth in the Guide for the Care and Use of Laboratory Animals (U.S. Department of Health and Human Services, Pub no. 85-23, 1985) and were approved by the Emory University Institutional Animal Care and Use Committee.
(§2) Bilateral contusions of the medial prefrontal cortex were created by a pneumatic impactor device as previously described. Briefly, rats were given anesthetized with ketamine/xylazine (90 mg/kg; 10 mg/kg) and placed in a stereotaxic apparatus. A craniectomy (diameter 6 mm) was made over the midline of the prefrontal cortex with its center 1.5 mm AP to bregma. After removal of the bone, the tip of the impactor (diameter 5 mm) was moved to +3.0 mm AP; 1.0 mm ML (from bregma), and checked for adequate clearance. Trauma was produced by pneumatically activating the piston to impact −2.0 mm DV (from dura) at a velocity of 3 m/s with a brain contact time of 0.5 seconds.
Progesterone was dissolved in peanut oil (Sigma; 4 mg/kg) and injections were given at 1 and 6 hours post-injury and then once per day for either 3 or 5 consecutive days. Control animals received injections of vehicle at similar time-points. Animals were coded with regard to surgery and treatment to prevent experimenter bias during behavioral testing and histological examination. […]
Mean area measurements of lesion size were quantified from sections at 15 rostral-caudal levels spaced 300 μm apart. […] Perimeters of the striatum and the lateral ventricles were also traced and mean areas were quantified from 7 rostral-caudal levels (300 μm apart).
(§3) Experienced individuals who were blind to treatment conditions of the study conducted all histological and behavioral analyses. All data were tested for normality and homoschedasticity before being analyzed by parametric analysis of variance (ANOVA). MWM results were analyzed using separate mixed-factorial (4 groups×5 days) analysis of variance (ANOVA) on each of the two 5-day testing periods (acquisition and retention respectively). Results of the BSN task were analyzed using the mixed-factorial ANOVA (4 groups×2 post-injury trials). […] Pearson r coefficients were calculated to determine whether significant correlations could be detected between histological (e.g., lesion size and cellular density) and behavioral parameters (e.g., acquisition and retention of the MWM task and measures of sensory neglect).

[3] = tested on: rats with bilateral contusions of the medial prefrontal cortex; experiment: Morris water maze task, Example 6; type: in vivo, rat
Experimental: as §1, §2
Progesterone was dissolved in peanut oil (Sigma; 4 mg/kg) and injections were given at 1 and 6 hours post-injury and then once per day for either 3 or 5 consecutive days. Control animals received injections of vehicle at similar time-points. Animals were coded with regard to surgery and treatment to prevent experimenter bias during behavioral testing and histological examination.
as §3
Beginning one week after surgery, spatial learning ability was assessed in the Morris water maze (MWM) task described previously. […] Animals were placed in the pool (nose facing the pool-wall) at one of four randomly determined starting positions (e.g.: N, S, E, W). […] Swim speed measures were recorded daily in order to delineate motor dysfunction from learning impairment.

[4] = tested on: traumatic brain injury; experiment: Morris water maze dose response, progesterone in cyclodextrin vehicle, Example 7; type: in vivo, rat
Experimental: The Morris Water Maize (MWM) consisted of a circular tank with a diameter of 133 cm filled with opaque water (20±1° C.; non-toxic Artista™ nontoxic white tempura paint) to a depth of 64 cm (23 cm from top of tank). A platform (11 cm×11 cm) was submerged to a depth of 2 cm and placed approximately 28 cm from the wall of the pool in the center of the northeast quadrant. The position of the platform will remain constant throughout the experiment. MWM testing began seven days after surgery. Each animal was tested for a total of 10 days (2 trials per day) in two 5-day blocks. At the start of each trial, the experimenter placed a rat into the pool at one of four starting positions, and at the same time, activate the computer-interfaced camera tracking system. Each rat was allowed to swim in the pool until it reached the platform or until 90 seconds has passed. […] Once a rat found the platform, it was left there for 20 seconds and then removed from the pool for an intertrial interval of 20 seconds. Each rat was then placed in the pool at another start position and the procedure described earlier was repeated. The performance of each rat was measured in terms of latency to platform, length of path to platform, and swim strategy, i.e., percent of total time spent in the outer versus inner annuli.
(§4) Surgery to induce a traumatic brain injury was performed as outlined in Example 1. Behavior testing using the Morris Water Maize was performed as outlined in Example 1 and the methods for the tactical adhesive removal were performed as outlined in Example 4.

[5] = tested on: traumatic brain injury; experiment: Sticker removal task (tactile adhesive removal) dose response, Example 7; type: in vivo, rat
Excerpt: On the 7th and 27th days post-injury, the rats will be assessed on their responsivity to focal somatosensory stimuli by requiring them to remove sticky paper from their forelimbs. Pairs of circular adhesive papers will be attached to the distal-radial areas of each forelimb and the animal will be returned to its home cage while the investigator holds the forepaws apart and keeps them away from the rat's mouth. The rats' latencies to remove the stimuli with their mouth will be recorded. The maximum length of a “test” trial will be 2 minutes, with each rat receiving four trials with 2 minute intertrial intervals.
as §4

[6] = tested on: ischemic injury; settings: following ischemic injury in rats; cited from earlier work

CC(=O)[C@H]1CC[C@H]2[C@@H]3CCC4=CC(=O)CC[C@]4(C)[C@H]3CC[C@]12C [progesterone]
cerebral edema [1]: intermediate between injured controls and the allopregnanolone-treated injured rats | enlargement of the lateral ventricles ([2]; 3 or 5 days): did not have any effect on this measure | mean striatal area ([2]; 3 or 5 days): No between-group differences | necrotic cavity formation ([2]; 3 days (LP3)): tended to be smaller than in the brains of injured animals | necrotic cavity formation ([2]; 5 days (LP5), P<0.05): significant reductions in overall necrotic cavity formation | spatial learning performance, initial 5-day acquisition phase ([3]; 4 mg/kg in peanut oil, 3 or 5 days, all injured groups): displayed deficits in spatial learning performance as compared to control animals | spatial learning performance, second 5-day trial block ([3]; 4 mg/kg in peanut oil, 5 days (LP5)): improved spatial learning performance | swim speed ([3]; 3 or 5 days, any day of testing): no between-group differences | thigmotaxic (wall-hugging) swim patterns ([3]; 5 days (LP5), last 2 days of the second phase of MWM testing): reduction of thigmotaxic behavior | Morris water maze performance ([4]; high dose 32 mg/kg in a cyclodextrin-containing vehicle): did not show any beneficial effect | Morris water maze performance ([4]; low dose 8 mg/kg in a cyclodextrin-containing vehicle): consistent improvement in Morris water maze performance | Morris water maze performance ([4]; moderate dose 16 mg/kg in a cyclodextrin-containing vehicle): consistent improvement in Morris water maze performance | sticker removal task (sensory neglect) ([5]; high dose 32 mg/kg in cyclodextrin-containing carrier): degraded to lesion control levels | sticker removal task (sensory neglect) ([5]; low dose 8 mg/kg in cyclodextrin-containing carrier): initially produce behavioral recovery | sticker removal task (sensory neglect) ([5]; moderate dose 16 mg/kg in cyclodextrin-containing carrier): improved to sham levels by day 21 post-injury | cell damage and neurological deficit [6]: reduce cell damage and neurological deficit
